Results published in patent US20240287079A1, “6-AMINOPYRAZOLOPYRIMIDINE COMPOUND AND PHARMACEUTICAL USE THEREOF” (Japan Tobacco Inc., priority 2021, published 2024).

These compounds were tested against NLRP3 inflammasome (Homo sapiens (Human), UniProt Q96P20) (assay: Evaluation of NLRP3 inflammasome inhibitory activity (inhibition of IL-1β production in LPS/Nigericin-stimulated THP1-Null cells)). Details: IL-1β production in THP1-Null cells, PMA, LPS 1 μg/mL, Nigericin 7.5 μmol/L, AlphaLISA.
Sequence of NLRP3 inflammasome (Q96P20 whole entry): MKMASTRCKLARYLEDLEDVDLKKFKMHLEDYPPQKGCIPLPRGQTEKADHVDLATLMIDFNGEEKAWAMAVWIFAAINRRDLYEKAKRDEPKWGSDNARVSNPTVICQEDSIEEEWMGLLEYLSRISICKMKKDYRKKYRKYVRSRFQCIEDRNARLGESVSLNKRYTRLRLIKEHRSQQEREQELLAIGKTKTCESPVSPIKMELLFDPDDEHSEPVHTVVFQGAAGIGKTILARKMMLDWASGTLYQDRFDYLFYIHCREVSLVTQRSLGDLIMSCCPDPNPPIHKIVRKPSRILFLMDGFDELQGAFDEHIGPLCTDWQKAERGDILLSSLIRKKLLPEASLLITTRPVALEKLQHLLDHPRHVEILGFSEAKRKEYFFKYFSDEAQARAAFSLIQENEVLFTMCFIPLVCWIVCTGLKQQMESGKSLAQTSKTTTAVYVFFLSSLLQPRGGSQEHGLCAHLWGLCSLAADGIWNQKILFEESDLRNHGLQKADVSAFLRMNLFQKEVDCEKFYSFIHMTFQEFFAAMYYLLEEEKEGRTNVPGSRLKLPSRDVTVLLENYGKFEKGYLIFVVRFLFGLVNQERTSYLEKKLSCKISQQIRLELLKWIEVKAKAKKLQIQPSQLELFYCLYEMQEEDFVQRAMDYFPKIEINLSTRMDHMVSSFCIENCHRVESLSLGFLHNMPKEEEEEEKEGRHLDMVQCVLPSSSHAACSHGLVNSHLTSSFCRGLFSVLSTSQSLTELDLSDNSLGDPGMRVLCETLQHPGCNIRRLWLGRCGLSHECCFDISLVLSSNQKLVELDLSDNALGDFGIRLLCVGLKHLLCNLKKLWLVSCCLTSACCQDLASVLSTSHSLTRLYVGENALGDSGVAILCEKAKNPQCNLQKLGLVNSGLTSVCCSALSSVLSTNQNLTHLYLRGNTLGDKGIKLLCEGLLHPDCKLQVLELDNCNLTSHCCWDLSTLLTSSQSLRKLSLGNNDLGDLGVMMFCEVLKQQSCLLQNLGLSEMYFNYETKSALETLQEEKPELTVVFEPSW
Assay type: cell-based
Outline: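 THP1-Null cells primed with 1 μg/mL LPS, then treated with test compound; supernatant IL-1β quantified by AlphaLISA. Inhibition calculated with blank wells as 100% and control wells as 0%.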
Compound `Cc1cc(Br)cc(C)c1-n1cc2c(=O)[nH]c(N3C4CC3CN(S(C)(=O)=O)C4)nc2n1` [Example 221] has an IC50 of 25 nM. In the case of `Cc1cc(Br)cc(C)c1-n1cc2c(=O)[nH]c(N3CC4CC(C3)N4S(C)(=O)=O)nc2n1` [Example 222], the IC50 is reported as 18 nM. `Cc1cc(Br)cc(C)c1-n1cc2c(=O)[nH]c(NCC3CC3)nc2n1` [Example 228] gave an IC50 of 7.7 nM. `[2H]C([2H])([2H])Nc1nc2nn(-c3c(C)cc(Br)cc3C)cc2c(=O)[nH]1` [Example 229] showed an IC50 of 9.4 nM. In the case of `[2H]C([2H])([2H])Nc1nc2nn(-c3c(C)cc(C4CC4)cc3C)cc2c(=O)[nH]1` [Example 231], the IC50 is reported as 7.7 nM. Work on `Cc1cc(C2CC2)cc(C)c1-n1cc2c(=O)[nH]c(N3CC4CC(C3)O4)nc2n1` [Example 232] yielded an IC50 of 6 nM. `Cc1cccc(C)c1-n1cc2c(=O)[nH]c(N3CCOCC3)nc2n1` [Example 233] showed an IC50 of 760 nM. In the case of `CC(C)c1cc(C(F)(F)F)cnc1-n1cc2c(=O)[nH]c(N3CCOCC3)nc2n1` [Example 236], the IC50 is reported as 730 nM. `Cc1cc(C(F)(F)F)cc(C)c1-n1cc2c(=O)[nH]c(N3CCOCC3)nc2n1` [Example 237] was tested, and the IC50 was 23 nM. Compound `O=c1[nH]c(N2CCOCC2)nc2nn(-c3ccc(Br)cc3C(F)(F)F)cc12` [Example 241] has an IC50 of 11 nM. With `Cc1cc(C2CC2)ccc1-n1cc2c(=O)[nH]c(N3CCOCC3)nc2n1` [Example 242] the IC50 was 24 nM. Compound `O=c1[nH]c(N2CCOCC2)nc2nn(-c3ccc(Br)cc3C(F)F)cc12` [Example 243] has an IC50 of 68 nM. `O=c1[nH]c(N2CCOCC2)nc2nn(-c3ccc(C4CC4)cc3C(F)F)cc12` [Example 244] was tested, and the IC50 was 22 nM. Work on `Cc1cc(Br)cc(C)c1-n1cc2c(=O)[nH]c(N3CCN(C)CC3)nc2n1` [Example 246] yielded an IC50 of 15 nM. In the case of `Cc1cc(C(F)(F)F)cc(C)c1-n1cc2c(=O)[nH]c(N3C[C@H]4C[C@@H]3CO4)nc2n1` [Example 249], the IC50 is reported as 3.3 nM. Compound `Cc1cc(C(F)(F)F)cc(C)c1-n1cc2c(=O)[nH]c(N3C[C@@H]4C[C@H]3CO4)nc2n1` [Example 250] has an IC50 of 8.9 nM. In the case of `COc1cc(C)c(-n2cc3c(=O)[nH]c(N4CCOCC4)nc3n2)c(C)c1` [Example 253], the IC50 is reported as 24 nM. `Cc1cc(Br)cc(F)c1-n1cc2c(=O)[nH]c(N3CCOCC3)nc2n1` [Example 254] gave an IC50 of 14 nM. `Cc1cc(C2CC2)cc(F)c1-n1cc2c(=O)[nH]c(N3CCOCC3)nc2n1` [Example 255] was tested, and the IC50 was 6.2 nM. Compound `O=c1[nH]c(N2CCOCC2)nc2nn(-c3c(O)cc(C(F)(F)F)cc3Cl)cc12` [Example 257] has an IC50 of 69 nM. Compound `C[C@@H]1COCCN1c1nc2nn(-c3ccc(Br)cc3C(F)(F)F)cc2c(=O)[nH]1` [Example 258] has an IC50 of 23 nM. In the case of `O=c1[nH]c(N2C[C@H]3C[C@@H]2CO3)nc2nn(-c3ccc(Br)cc3C(F)(F)F)cc12` [Example 259], the IC50 is reported as 23 nM. `O=c1[nH]c(N2C[C@@H]3C[C@H]2CO3)nc2nn(-c3ccc(Br)cc3C(F)(F)F)cc12` [Example 260] showed an IC50 of 17 nM. Work on `C[C@@H]1COCCN1c1nc2nn(-c3ccc(C4CC4)cc3C(F)(F)F)cc2c(=O)[nH]1` [Example 261] yielded an IC50 of 5.5 nM. Work on `O=c1[nH]c(N2C[C@H]3C[C@@H]2CO3)nc2nn(-c3ccc(C4CC4)cc3C(F)(F)F)cc12` [Example 262] yielded an IC50 of 9.8 nM. `O=c1[nH]c(N2C[C@@H]3C[C@H]2CO3)nc2nn(-c3ccc(C4CC4)cc3C(F)(F)F)cc12` [Example 263] gave an IC50 of 8.6 nM. For `Cc1cc(-n2cc3c(=O)[nH]c(N4CCOCC4)nc3n2)c(C)cc1Cl` [Example 265], the IC50 was 350 nM. In the case of `Cc1cc(Br)cc(C)c1-n1cc2c(=O)[nH]c(NCC(F)(F)F)nc2n1` [Example 266], the IC50 is reported as 14 nM. Compound `Cc1cc(Br)cc(C)c1-n1cc2c(=O)[nH]c(NCCF)nc2n1` [Example 267] has an IC50 of 6.5 nM. `COCc1cc(Br)ccc1-n1cc2c(=O)[nH]c(N3CCOCC3)nc2n1` [Example 268] gave an IC50 of 34 nM. Work on `Cc1cc(C2CCC2)cc(C)c1-n1cc2c(=O)[nH]c(N3CCOCC3)nc2n1` [Example 270] yielded an IC50 of 83 nM. With `Nc1cc(C(F)(F)F)cc(Cl)c1-n1cc2c(=O)[nH]c(N3CCOCC3)nc2n1` [Example 271] the IC50 was 20 nM. `O=c1[nH]c(N2CCOCC2)nc2nn(-c3c(F)cc(Br)cc3C(F)(F)F)cc12` [Example 272] was tested, and the IC50 was 22 nM. `O=c1[nH]c(N2CCOCC2)nc2nn(-c3c(F)cc(C4CC4)cc3C(F)(F)F)cc12` [Example 273] gave an IC50 of 13 nM. With `Cc1cc(Br)cc(C)c1-n1cc2c(=O)[nH]c(NC3COC3)nc2n1` [Example 274] the IC50 was 580 nM. For `Cc1cc(C2CC2)cc(C)c1-n1cc2c(=O)[nH]c(N3CCOC[C@H]3C)nc2n1` [Example 275], the IC50 was 8.5 nM. Compound `Cc1cc(C2(C(F)(F)F)CC2)cc(C)c1-n1cc2c(=O)[nH]c(N3CCOCC3)nc2n1` [Example 276] has an IC50 of 220 nM. `Cc1cc(C(F)(F)F)cc(C)c1-n1cc2c(=O)[nH]c(N3CC4CC(C3)O4)nc2n1` [Example 277] was tested, and the IC50 was 16 nM. Work on `Cc1cc(Br)cc(C)c1-n1cc2c(=O)[nH]c(N3CC4CCC(C3)O4)nc2n1` [Example 278] yielded an IC50 of 7.9 nM. Work on `Cc1cc(Br)cc(C)c1-n1cc2c(=O)[nH]c(N3CCCC3)nc2n1` [Example 280] yielded an IC50 of 4.2 nM. `Cc1cc(C(F)(F)F)cc(C)c1-n1cc2c(=O)[nH]c(N3CCCC3)nc2n1` [Example 281] showed an IC50 of 13 nM. `Cc1c(Cl)ccc(-n2cc3c(=O)[nH]c(N4CCOCC4)nc3n2)c1C` [Example 282] showed an IC50 of 180 nM. With `Cc1cc(Br)cc(C)c1-n1cc2c(=O)[nH]c(N3CCC(F)(F)C3)nc2n1` [Example 283] the IC50 was 7.1 nM. `Cc1cc(Br)cc(C)c1-n1cc2c(=O)[nH]c(N3CCC[C@H]3C)nc2n1` [Example 284] gave an IC50 of 12 nM. `Cc1cc(Br)cc(C)c1-n1cc2c(=O)[nH]c(N3CCC[C@@H]3C)nc2n1` [Example 285] was tested, and the IC50 was 27 nM. For `Cc1cc(C2CC2)cc(C)c1-n1cc2c(=O)[nH]c(N3CCCC3)nc2n1` [Example 286], the IC50 was 4.2 nM. In the case of `Cc1cc(C2CC2)cc(Cl)c1-n1cc2c(=O)[nH]c(N3C[C@H]4C[C@@H]3CO4)nc2n1` [Example 287], the IC50 is reported as 9.6 nM. `Cc1cc(C2CC2)cc(Cl)c1-n1cc2c(=O)[nH]c(N3C[C@@H]4C[C@H]3CO4)nc2n1` [Example 288] was tested, and the IC50 was 10 nM. With `CC(=O)N1CCN(c2nc3nn(-c4c(C)cc(C5CC5)cc4C)cc3c(=O)[nH]2)[C@H](C)C1` [Example 290] the IC50 was 10 nM. `Cc1cc(Br)cc(C)c1-n1cc2c(=O)[nH]c(N(C)C(C)C)nc2n1` [Example 291] was tested, and the IC50 was 16 nM. With `CCc1cc(C)c(-n2cc3c(=O)[nH]c(N4CCOCC4)nc3n2)c(C)c1` [Example 292] the IC50 was 28 nM. For `C=C(c1cc(C)c(-n2cc3c(=O)[nH]c(N4CCOCC4)nc3n2)c(C)c1)C(F)(F)F` [Example 293], the IC50 was 290 nM.

Same assay, conditions: IL-1β production in THP1-Null cells; test compound 0.0024 μM
Work on `CCNc1nc2nn(-c3c(C)cc(Br)cc3C)cc2c(=O)[nH]1` [Example 227] yielded an inhibition at 0.0024 µM of 52%. Compound `Cc1cc(Br)cc(C)c1-n1cc2c(=O)[nH]c(NC3CC3)nc2n1` [Example 230] has an inhibition at 0.0024 µM of 60%. With `Cc1cc(Br)cc(C)c1-n1cc2c(=O)[nH]c(NC(C)C)nc2n1` [Example 235] the inhibition at 0.0024 µM was 52%. For `Cc1cc(C(F)(F)F)cc(C)c1-n1cc2c(=O)[nH]c(N3CCOC[C@H]3C)nc2n1` [Example 251], the inhibition at 0.0024 µM was 65%.

Same assay, conditions: IL-1β production in THP1-Null cells; test compound 2.4 μM
Compound `O=c1[nH]c(N2CCOCC2)nc2nn(-c3c(Cl)cc(C(F)(F)F)cc3N3CCOCC3)cc12` [Example 256] has an inhibition at 2.4 µM of 40%. `COc1ccc(CNc2cc(C(F)(F)F)cc(Cl)c2-n2cc3c(=O)[nH]c(N4CCOCC4)nc3n2)c(OC)c1` [Example 269] was tested, and the inhibition at 2.4 µM was 25%.
